From ChEMBL document CHEMBL1201862, “PubChem BioAssay data set” (2004)
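Where inhibition never reached the appropriate level, the endpoint shown equals the highest concentration tested. Otherwise, values were interpolated linearly from a five-concentration, 48-hour dose response in 96-well plates. At the GI50, growth is halved.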 Activity calls are given as the source filed them. No stated cut-off is given here; in the data, active = GI50 up to about 1.1 µM and inactive = higher.

What was measured:
Assay in all cases: NCI tumour cell line growth inhibition, 48 h
KM12 = system: KM12
TK-10 = system: TK-10
HCC 2998 = system: HCC 2998
SF-295 = system: SF-295
NCI-H522 = system: NCI-H522
A549 = system: A549
CCRF-CEM = system: CCRF-CEM
SNB-19 = system: SNB-19
OVCAR-4 = system: OVCAR-4
HOP-62 = system: HOP-62
HT-29 = system: HT-29
COLO 205 = system: COLO 205
SNB-75 = system: SNB-75
OVCAR-8 = system: OVCAR-8
HCT-116 = system: HCT-116
ACHN = system: ACHN
OVCAR-3 = system: OVCAR-3
NCI/ADR-RES = system: NCI/ADR-RES

Measured: GI50

Clc1ccc(C[P+](c2ccccc2)(c2ccccc2)c2ccccc2)cc1Cl
inactive: KM12 2.69 µM | TK-10 5.05 µM | HCC 2998 2.46 µM | SF-295 10.3 µM | NCI-H522 1.89 µM | A549 4.49 µM | CCRF-CEM 3.07 µM | SNB-19 3.21 µM | OVCAR-4 4.4 µM | HOP-62 9.08 µM | HT-29 1.91 µM | COLO 205 1.55 µM | SNB-75 1.77 µM | OVCAR-8 3.05 µM | HCT-116 1.93 µM | ACHN 13.1 µM | OVCAR-3 2.06 µM

O=C1OC(c2ccccc2)(c2ccccc2)c2ccc3ccc(F)cc3c21
inactive: KM12 > 100 µM | TK-10 > 100 µM | HCC 2998 37.2 µM | SF-295 13 µM | NCI-H522 51.1 µM | A549 19.3 µM | CCRF-CEM 31.3 µM | SNB-19 > 100 µM | OVCAR-4 > 100 µM | HOP-62 > 100 µM | HT-29 13.6 µM | COLO 205 > 100 µM | SNB-75 37.6 µM | OVCAR-8 > 100 µM | HCT-116 27 µM | ACHN 49.8 µM | OVCAR-3 68.7 µM

CCCCCCCCCCNC(=S)OC
inactive: TK-10 98.2 µM | HCC 2998 43.6 µM | SF-295 55.5 µM | NCI-H522 20.2 µM | A549 34.3 µM | CCRF-CEM 24.3 µM | SNB-19 59.2 µM | OVCAR-4 47.2 µM | HOP-62 > 100 µM | HT-29 34.3 µM | SNB-75 27.4 µM | OVCAR-8 48.2 µM | HCT-116 37.9 µM | ACHN 33.6 µM

CC(C)c1cccc2sc(NC(=O)C(=O)CC(=O)c3ccc(F)cc3)nc12
inactive: KM12 > 100 µM | TK-10 > 100 µM | SF-295 > 100 µM | NCI-H522 > 100 µM | A549 > 100 µM | CCRF-CEM > 100 µM | SNB-19 > 100 µM | OVCAR-4 > 100 µM | HOP-62 > 100 µM | HT-29 > 100 µM | COLO 205 > 100 µM | SNB-75 59.7 µM | OVCAR-8 > 100 µM | HCT-116 > 100 µM | ACHN > 100 µM | OVCAR-3 > 100 µM

CC(C)(C)OC(=O)NC(Cc1ccccc1)C(=S)N1CCCC1 (configuration not stated)
inactive: KM12 > 100 µM | TK-10 > 100 µM | HCC 2998 > 100 µM | SF-295 95.3 µM | NCI-H522 25 µM | A549 > 100 µM | CCRF-CEM 69.2 µM | SNB-19 > 100 µM | OVCAR-4 86.3 µM | HOP-62 25.8 µM | HT-29 85.7 µM | COLO 205 > 100 µM | SNB-75 55.5 µM | OVCAR-8 > 100 µM | HCT-116 > 100 µM | ACHN > 100 µM | OVCAR-3 > 100 µM

CC(=O)c1cc([N+](=O)[O-])ccc1OCC(=O)O
inactive: KM12 > 100 µM | TK-10 > 100 µM | HCC 2998 > 100 µM | SF-295 > 100 µM | NCI-H522 > 100 µM | A549 > 100 µM | CCRF-CEM > 100 µM | SNB-19 > 100 µM | OVCAR-4 > 100 µM | HOP-62 > 100 µM | HT-29 > 100 µM | COLO 205 > 100 µM | SNB-75 > 100 µM | OVCAR-8 > 100 µM | HCT-116 > 100 µM | ACHN > 100 µM | OVCAR-3 > 100 µM

OCCN1CCN(CC/C=C2/c3ccccc3Sc3ccc(Cl)cc32)CC1
inactive: KM12 9.57 µM | TK-10 15.2 µM | HCC 2998 11.3 µM | SF-295 18.4 µM | NCI-H522 16.4 µM | A549 15.6 µM | CCRF-CEM 8.41 µM | SNB-19 20.7 µM | OVCAR-4 17.2 µM | HOP-62 16.1 µM | HT-29 2.57 µM | COLO 205 9.73 µM | SNB-75 3.69 µM | HCT-116 8.47 µM | ACHN 16 µM | OVCAR-3 14.7 µM

COc1ccc(-c2onc(-c3ccc([N+](=O)[O-])cc3)c2C2=NCCCN2)cc1
inactive: KM12 > 100 µM | HCC 2998 > 100 µM | SF-295 53.2 µM | NCI-H522 51.3 µM | A549 > 100 µM | CCRF-CEM > 100 µM | SNB-19 > 100 µM | OVCAR-4 > 100 µM | HOP-62 > 100 µM | HT-29 40.3 µM | COLO 205 43.6 µM | SNB-75 > 100 µM | OVCAR-8 81.1 µM | HCT-116 38.9 µM | ACHN > 100 µM | OVCAR-3 26.5 µM

O=C(O)Cc1cc(=O)[nH]c2c1/C(=N/O)CCC2
inactive: KM12 > 100 µM | TK-10 > 100 µM | HCC 2998 > 100 µM | SF-295 > 100 µM | NCI-H522 > 100 µM | A549 > 100 µM | CCRF-CEM > 100 µM | SNB-19 > 100 µM | HT-29 > 100 µM | OVCAR-8 > 100 µM | ACHN > 100 µM | OVCAR-3 > 100 µM

CCCCc1c2c(nc3c1CCCC3=O)C(=O)CCC2
inactive: KM12 > 100 µM | TK-10 > 100 µM | HCC 2998 > 100 µM | SF-295 > 100 µM | NCI-H522 > 100 µM | A549 > 100 µM | CCRF-CEM > 100 µM | SNB-19 > 100 µM | OVCAR-4 > 100 µM | HOP-62 > 100 µM | HT-29 > 100 µM | COLO 205 > 100 µM | SNB-75 62.4 µM | OVCAR-8 > 100 µM | HCT-116 > 100 µM | ACHN > 100 µM | OVCAR-3 > 100 µM

CCOC(=O)C1CSCCSC1
inactive: KM12 > 100 µM | TK-10 > 100 µM | HCC 2998 25.5 µM | SF-295 > 100 µM | NCI-H522 > 100 µM | A549 > 100 µM | CCRF-CEM > 100 µM | SNB-19 > 100 µM | HT-29 > 100 µM | NCI/ADR-RES > 100 µM | COLO 205 > 100 µM | SNB-75 43 µM | OVCAR-8 > 100 µM | HCT-116 > 100 µM | ACHN > 100 µM

O=C(O)/C(Cl)=C(\Cl)C(=O)c1ccccc1
inactive: KM12 > 100 µM | TK-10 > 100 µM | HCC 2998 > 100 µM | SF-295 > 100 µM | NCI-H522 > 100 µM | A549 > 100 µM | CCRF-CEM > 100 µM | SNB-19 > 100 µM | OVCAR-4 > 100 µM | HOP-62 > 100 µM | HT-29 > 100 µM | COLO 205 > 100 µM | SNB-75 > 100 µM | OVCAR-8 > 100 µM | HCT-116 > 100 µM | ACHN > 100 µM | OVCAR-3 > 100 µM

Cc1ccc(C)c(N2C(=O)C(=O)C(c3nc4ccccc4o3)/C(=N\NC(=O)c3ccccc3O)C2=O)c1 (configuration not stated)
inactive: TK-10 44 µM | HCC 2998 67.3 µM | SF-295 56.2 µM | NCI-H522 17.5 µM | A549 13.6 µM | CCRF-CEM 4.09 µM | SNB-19 12.3 µM | OVCAR-4 11.7 µM | HOP-62 24.9 µM | HT-29 32.1 µM | COLO 205 24.2 µM | SNB-75 5.7 µM | OVCAR-8 19.8 µM | HCT-116 17.5 µM | ACHN 12 µM | OVCAR-3 16.6 µM

C=C1C2Oc3ccccc3C1N(c1ccccc1)O2 (configuration not stated)
inactive: KM12 17.9 µM | TK-10 84.9 µM | HCC 2998 31 µM | SF-295 23.1 µM | NCI-H522 27.2 µM | A549 30.4 µM | CCRF-CEM 21.3 µM | SNB-19 49 µM | OVCAR-4 20 µM | HOP-62 66.7 µM | HT-29 23 µM | COLO 205 48.5 µM | SNB-75 43.8 µM | OVCAR-8 17 µM | HCT-116 20.3 µM | ACHN 37.2 µM | OVCAR-3 32.3 µM

CCN(CC)CCCNC(=O)C1COc2cc(-c3cc(=O)c4ccccc4o3)ccc2O1 (configuration not stated)
inactive: TK-10 42.4 µM | HCC 2998 42.2 µM | SF-295 96.8 µM | NCI-H522 33.3 µM | A549 44.1 µM | CCRF-CEM 43.8 µM | SNB-19 > 100 µM | OVCAR-4 72.6 µM | HOP-62 > 100 µM | HT-29 41.7 µM | COLO 205 25.1 µM | SNB-75 45.9 µM | OVCAR-8 53.7 µM | HCT-116 37.4 µM | ACHN 51.4 µM | OVCAR-3 93.5 µM

CC1=CCC2CC1NC(=O)CCOCCC(=O)NC2(C)C (configuration not stated)
inactive: KM12 > 100 µM | TK-10 > 100 µM | HCC 2998 > 100 µM | SF-295 > 100 µM | NCI-H522 > 100 µM | A549 > 100 µM | CCRF-CEM > 100 µM | SNB-19 > 100 µM | OVCAR-4 > 100 µM | HT-29 > 100 µM | NCI/ADR-RES > 100 µM | COLO 205 > 100 µM | OVCAR-8 > 100 µM | HCT-116 > 100 µM | ACHN > 100 µM

CN(O)C(=O)c1ccccc1
inactive: KM12 > 100 µM | TK-10 > 100 µM | HCC 2998 > 100 µM | SF-295 > 100 µM | NCI-H522 > 100 µM | A549 > 100 µM | CCRF-CEM > 100 µM | SNB-19 > 100 µM | OVCAR-4 > 100 µM | HOP-62 > 100 µM | HT-29 > 100 µM | COLO 205 > 100 µM | SNB-75 > 100 µM | OVCAR-8 > 100 µM | HCT-116 > 100 µM | ACHN > 100 µM | OVCAR-3 > 100 µM
